From EP0172962A1, “Prostaglandins” (ONO PHARMACEUTICAL CO., LTD., priority 1984, dated 1986) come the findings set out here.

One data set concerns ICR male mice. Briefly: Test on increase of white blood cell (hematological test). The class given is in vivo. Conditions: 3 mg/kg i.p. once a day for 14 days, blood collected on the day following the final administration. On the procedure: The experimental methods and results are described below. A solution of a compound of the present invention in ethanol was diluted with l% Tween 80 (registered Trade Mark) and the solution was intraperitoneally administered to ICR male mice of 6-7 weeks old once a day for 14 days. On the day following the final administration, the blood was collected by cardiac puncture with Anglot® (containing heparin and EDTA) as an anticoagulant. The blood was diluted with Seruento (registered Trade Mark), and the numbers of white blood cells and red blood cells were counted by a Micro Cell Counter (model CC-120).

A further data set in a line: Acute toxicity. Particulars: in vivo, iv; intravenously.
Data set [1] relates to cells originated from human mouth tumour (KB-cells). Briefly: Test on inhibition of proliferation using cells originated from human mouth tumour (KB-cells). In kind it is cell-based. Conditions: 96 h, stationary culture at 37°C for 4 days, Trypan Blue staining, surviving cell number relative to control. On the procedure: The experimental methods and the results are described below. Test on Inhibition of Proliferation Using Cells Originated
. The cells originated from human mouth tumour (KB-cells) were added to Eagle's MEM culture solution containing 10% bovine fetal serum, the number of cells in the culture solution was adjusted to 1 ×10^5 cells/ml, a solution in ethanol of compounds of the present invention was added to give a concentration of 5 µg/ml or below and the mixture was subjected to stationary culture at 37°C for 4 days. As a control, a culture solution containing 0.1% of ethanol was similarly cultured. After the culture, the cells were stained by the Trypan Blue staining method, and the surviving cell number was measured to determine the IC50 value from the degree of inhibition relative to the control.

Values after ≈ are worked out from the molar mass of the structure shown.

Regarding `CCCCC[C@H](O)/C=C/[C@H]1C(=O)C=C[C@@H]1C/C=C\CCCC(=O)NCCCNC(=O)CCC/C=C\C[C@H]1C=CC(=O)[C@@H]1/C=C/[C@@H](O)CCCCC` [Example 1(e), N,N'-bis[(5Z,13E)-(15S)-11-oxo-15-hydroxy-prosta-5,9,13-trienoyl]trimethylenediamine], the “RBC (x10^4/mm^3)” value with ICR male mice (red blood cells) is given as 793 ± 22.5 (p <0.001) x10^4/mm^3. Further, in the data set with ICR male mice (white blood cells), the “WBC (x10^2/mm^3)” value was 158 ± 17.0 (p <0.05) x10^2/mm^3. For the same compound, the LD50 (as a rule, the dose at which mortality reaches 50%) in the data set “Acute toxicity” was above 100 mg/kg.

Turning to `CCCCC[C@H](O)/C=C/[C@H]1C(=O)C=C[C@@H]1C/C=C\CCCC(=O)NCCCCNC(=O)CCC/C=C\C[C@H]1C=CC(=O)[C@@H]1/C=C/[C@@H](O)CCCCC` [Example 1(f)], the IC50 – broadly, the concentration that gives 50% inhibition – in data set [1] is 1.17 µg/mL (≈ 1.62 µM).

In data set [1], `CCCCC[C@H](O)/C=C/[C@H]1C(=O)C=C[C@@H]1C/C=C\CCCC(=O)NCCOC(=O)CCC/C=C\C[C@H]1C=CC(=O)[C@@H]1/C=C/[C@@H](O)CCCCC` [Example 1(g)] came in with an IC50 of 1.8 µg/mL (≈ 2.59 µM).

In data set [1], `CCCCC[C@H](O)/C=C/[C@H]1C(=O)C=C[C@@H]1C/C=C\CCCC(=O)OCCOC(=O)CCC/C=C\C[C@H]1C=CC(=O)[C@@H]1/C=C/[C@@H](O)CCCCC` [Example 1(h)] yielded an IC50 below 1 µg/mL.

Take `CCCCC[C@H](O)/C=C/[C@H]1C(=O)C=C[C@@H]1C/C=C\CCCC(=O)NCCNC(=O)CCC/C=C\C[C@H]1C=CC(=O)[C@@H]1/C=C/[C@@H](O)CCCCC` [Example 1]: the IC50 in data set [1] was 0.87 µg/mL (≈ 1.26 µM).

`CCCCC[C@H](O)/C=C/[C@H]1C(=O)C[C@H](O)[C@@H]1C/C=C\CCCC(=O)NCCCNC(=O)CCC/C=C\C[C@H]1[C@@H](O)CC(=O)[C@@H]1/C=C/[C@@H](O)CCCCC` [Example 3(a)] yielded an IC50 in data set [1] of 1.9 µg/mL (≈ 2.56 µM).

`CCCCCC=CC=C1C(=O)C=CC1CC=CCCCC(=O)NCCNC(=O)CCCC=CCC1C=CC(=O)C1=CC=CCCCCC` (stereo not drawn) [Example 4] yielded an IC50 in data set [1] of 0.47 µg/mL (≈ 0.715 µM).
